# Laboratory results published in patent US11046798B2, “Phosphono-phosphate containing compounds and polymers” (The Procter & Gamble Company, priority 2017, dated 2021).
# Values joined by “and” are separate entries in the source; they are usually repeats but may differ in a detail not shown here. Equal values may be shown once.
# How the values were obtained:
# [1] = Powder Stain Removal Model (PSRM)
# Source text: The Powder Stain Removal Model (PSRM) is a screening technique where hydroxyapatite powder (HAP) is used as a substrate for stain accumulation. The purpose of this technique is to illustrate and quantify the stain removal properties of chemical agents used in oral care. Hydroxyapatite powder provides a large surface area to which tea chromogens adsorb. […] The magnitude of stain removal can then be quantified by image analysis. A trial of this model can be completed in three days. Steps involved in PSRM are described below.
# Prepare large batch of tea stain HAP by stirring 10 g of HAP powder in 200 ml of filtered tea for 5 minutes. Divide into centrifuge tubes and centrifuge at 15,000 rpm for 15 mins. Wash pellet by adding in 25 ml of water, vortexing, centrifuging at 15,000 rpm for 15 mins, and pipet out liquid. Make sure pellet breaks up during vortexing. Repeat wash.
# Place centrifuge tubes in convection oven (55-65° C.) overnight to dry stained HAP. Once dried, pool stained HAP together and grind to a fine powder with pestle and mortar.
# Tube is vortexed for I minute to fully suspend HAP in treatment followed by centrifugation at 15,000 rpm for 15 mins. After centrifugation, supernatant is decanted and pellet redistributed by adding 25 ml of water, vortexing, centrifuging at 15,000 rpm for 15 mins, and decanting-making sure pellet breaks up during vortexing. The wash cycle is repeated one more time.
# Vortex pellet in approximately 10 ml of water until fully suspended followed by filtering under vacuum onto a Millipore filter disk (Membrane Filters 4.5 μm, 47 mm Catalog #HAWP04700, Millipore Corporation, Bedford, Mass.). Prepare a control disk using=200 mg of untreated, stained HAP. Filter disks are then dried overnight in flat position and then laminated.
# Whitelight system: HAP disk (untreated HAP control and HAP treatments) is placed in a stabilized sample holder. The color is measured using a digital camera camera having a lens equipped with a polarizer filter (Camera model no. CANON EOS 70D from Canon Inc., Melville, N.Y. with NIKON 55 mm micro-NIKKOR lens with adapter). The light system is provided by Dedo lights (model number DLH2) equipped with 150 watt, 24V bulbs model number (Xenophot model number HL X64640), positioned about 30 cm apart (measured from the center of the external circular surface of one of the glass lens through which the light exits to the other) and aimed at a 45 degree angle such that the light paths meet on the HAP disk. Image analysis is performed using Whitelight with Ultragrab, Optimas and Giant Imaging software.
# Usual controls for a single polymer PSRM are water as a treatment followed by exposure to tea, and water without exposure to tea. Additionally, pyrophosphate and polyphosphate are run as internal controls. […]
# [2] = Powder Stain Prevention Model (PSPM)
# Source text: The Powder Stain Prevention Model (PSPM) is a screening technique where hydroxyapatite powder (HAP) is used as a substrate for stain accumulation. The general purpose of this technique is to illustrate and quantify the stain prevention ability or staining potential of chemical agents used in oral care. Hydroxyapatite powder provides a large surface area to which tea chromogens adsorb. Pretreatment of HAP with oral care actives, either in rinse or dentifrice form, results in different levels of stain accumulation depending upon the ability of the actives to block or enhance the binding of these chromogens onto HAP surface. The magnitude of stain can then be quantified by image analysis.
# Tube is vortexed for 30 seconds to fully suspend HAP in treatment followed by centrifugation at 15,000 rpm for 15 mins. After centrifugation, supernatant is decanted and pellet redistributed by adding 25 ml of water, vortexing, centrifuging at 15,000 rpm for 15 mins, and decanting-making sure pellet breaks up during vortexing. The wash cycle is repeated two more times.
# After final water wash, 20 ml of filtered tea (1 Lipton tea bag per 100 ml of hot water seeped for 5 minutes, filtered and used at 50° C.) is added to each pellet and vortexed for 30 seconds to fully suspend HAP in tea. Powder suspension is centrifuged at 15,000 rpm for 15 mins and decanted. About 25 ml of water is added to the tube, vortexed and then centrifuging at 15,000 rpm for 15 mins. The liquid is decanted and wash cycle is repeated 2 more times.
# Vortex pellet in approximately 10 ml of water until fully suspended followed by filtering under vacuum onto a Millipore filter disk (Membrane Filters 4.5 μm, 47 mm Catalog #HAWP04700, Millipore Corporation, Bedford, Mass.). Prepare a control disk using. −200 mg of untreated, unstained HAP. Filter disks are then dried overnight in flat position and then laminated.
# Whitelight system: HAP disk (untreated HAP control and HAP treatments) is placed in a stabilized sample holder. The color is measured using a digital camera having a lens equipped with a polarizer filter (Camera model no. CANON EOS 70D from Canon Inc., Melville, N.Y. with NIKON 55 mm micro-NIKKOR lens with adapter). The light system is provided by Dedo lights (model number DLH2) equipped with 150 watt, 24V bulbs model number (Xenophot model number HL X64640), positioned about 30 cm apart (measured from the center of the external circular surface of one of the glass lens through which the light exits to the other) and aimed at a 45 degree angle such that the light paths meet on the HAP disk. Image analysis is performed using Whitelight with Ultragrab, Optimas and Giant Imaging software.
# Usual controls for a single polymer PSPM are water as a treatment followed by exposure to tea, and water without exposure to tea. […]
compound,measurement,setting,value
O=P(O)(O)OP(=O)(O)O [Pyrophosphate],Delta L,[1],14.2
same,PSRM (ΔL),[1],13.0-18
same,PSRM ΔL,[1],12.4 and 13.5
same,Delta L,[2],16.3
same,PSPM (ΔL),[2],12.2-16.0
same,PSPM ΔL,[2],18.0 and 14.3
